Consider twelve compounds from US6774121B1, “Phospholipid prodrugs of anti-proliferative drugs” (D-Pharm, Ltd., priority 1999, dated 2004).

The test system of experiment [1] is human leukemia cell line CCRF-CEM (CEM). The experiment in a line: MTT cell growth inhibition, CEM cells (Example 4). Format: cell-based. The note with it: 72 hours, MTT assay; read-out: EC50, nMol CEM. Here is the method: (§1) A series of methotrexate derivatives were screened for their inhibitory effect on cell growth. Three tumor cell lines were used for this screen: i) human leukemia cell line CCRF-CEM which is MTX-sensitive (herein denoted as CEM), ii) a mutant of CEM cell line which is MTX-resistant due to a mutation in the RFC (herein denoted as CEM-MTX; provided by Dr. […], Technion, Israel), and iii) rat C6 glioma cell line. Cells were seeded at a density of 10^4 cells/ml in RPMI medium supplemented with 10% FCS in 96 well plates. The cultured cells were incubated, during their linear growth phase, in the presence and absence of various concentrations of MTX derivatives. The tested compounds were prepared as 1 mM stock in absolute ethanol or DMSO and were diluted into the medium. The highest vehicle presence in the assay was 5% of the vehicle. After 72 hours at 37° C. the cytotoxic effect on the cells was estimated by using the colorimetric MTT assay (Mosmann (1983) J. Immunol Methods 65: 55-63) that measures mitochondrial reductase activity and serves for quantitative assessment of cellular viability. […] The EC50 values were calculated from dose response curves for each tested compound.
Background: Formazan colour is commonly taken as a measure of viable cells.

The subject of the next experiment is rat C6 glioma cell line. The experiment in a line: MTT cell growth inhibition, C6 glioma cells (Example 4). The format is cell-based. The note with it: 72 hours, MTT assay; read-out: EC50, nMol C6 glioma. Here is the method:
as §1

In experiment [2] the test system is CEM-MTX (MTX-resistant mutant of CEM, mutation in the RFC). The experiment in a line: MTT cell growth inhibition, MTX-resistant CEM-MTX cells (Example 4). The format is cell-based, human. The following applies: for EC50: 72 hours, MTT assay, read-out: EC50, nMol CEM-MTX. Here is the method:
A series of methotrexate derivatives were screened for their inhibitory effect on cell growth. Three tumor cell lines were used for this screen: i) human leukemia cell line CCRF-CEM which is MTX-sensitive (herein denoted as CEM), ii) a mutant of CEM cell line which is MTX-resistant due to a mutation in the RFC (herein denoted as CEM-MTX; provided by Dr. Y. Assraf, Technion, Israel), and iii) rat C6 glioma cell line.
Cells were seeded at a density of 10^4 cells/ml in RPMI medium supplemented with 10% FCS in 96 well plates. The cultured cells were incubated, during their linear growth phase, in the presence and absence of various concentrations of MTX derivatives. The tested compounds were prepared as 1 mM stock in absolute ethanol or DMSO and were diluted into the medium. The highest vehicle presence in the assay was 5% of the vehicle. After 72 hours at 37° C. the cytotoxic effect on the cells was estimated by using the colorimetric MTT assay (Mosmann (1983) J. Immunol Methods 65: 55-63) that measures mitochondrial reductase activity and serves for quantitative assessment of cellular viability. Drug concentration required for inhibiting the growth of 50% of cell population in culture over a 72 hour period incubation, is defined as EC50.
The EC50 values were calculated from dose response curves for each tested compound.

Experiment [3] has as its system Friend cells (an erythroleukemic cell line). Description: MTT cytotoxicity, Friend cells (Example 5). The format is cell-based. The following applies: 72 hour. Here is the method: The toxicity of methotrexate derivatives of the invention (DP-MTX) was evaluated in an additional cell-culture system. The doses required to inhibit the growth of cultured Friend cells (an erythroleukemic cell line) by 50%, over a 72 hour period (ED50), were determined using a mitochondrial viability (MTT) endpoint assay.
Friend cells were seeded at a density of 10^4 cells/ml in RPMI medium supplemented with 10% FCS in 96 well plates. The cultured cells were incubated, during their linear growth phase, in the presence and absence of various concentrations of MTX derivatives. After 72 hours at 37° C., cell viability was estimated by using the colorimetric MTT assay.

A further experiment relates to PLA2. The following applies: isoform not stated; read-out: IC50 of known inhibitors of PLA2; cited from earlier work.
The test system of experiment [4] is RFC-mediated MTX-resistant cell line (L1210-MTX). Description: MTT cytotoxicity, L1210-MTX cells (Example 9). The format is cell-based. The note with it: Mus musculus.
For another experiment, the system named is L1210. The experiment in a line: MTT cytotoxicity, parent L1210 cells (Example 9). The format is cell-based. The note with it: Mus musculus.

As a reminder, the EC50 is the concentration at which the effect is half-maximal. Regarding `CCCCCCCCCCCCCCCCCC(=O)OC[C@H](COP(=O)([O-])OCC[N+](C)(C)C)OC(=O)CCNC(=O)C(CCC(=O)O)NC(=O)c1ccc(N(C)Cc2cnc3nc(N)nc(N)c3n2)cc1` (stereo partly drawn) [DP-MTX-93, 1-Stearoyl-2-[3-(α-MTX amido)-Propanoyl]-sn-Glycero-3-phosphocholine], the EC50 in experiment [1] was 0.027 µM; in the experiment with rat C6 glioma cell line, 0.417 µM; in experiment [2], 4.65 µM. In experiment [3], the “ED50” value was 97.5 nmol.
With `CCCCCCCCCCCCCCCCCC(=O)OC[C@H](COP(=O)([O-])OCC[N+](C)(C)C)OC(=O)CCCCCNC(=O)C(CCC(=O)O)NC(=O)c1ccc(N(C)Cc2cnc3nc(N)nc(N)c3n2)cc1` (stereo partly drawn) [DP-MTX-106, 1-Stearoyl-2-[6-(α-MTX amido)-Hexanoyl]-sn-Glycero-3-phosphocholine], the EC50 in experiment [1] stood at 0.499 µM; in the experiment on rat C6 glioma cell line, 3.22 µM; in experiment [2] it was 8.4 µM. Further, the “ED50” value in experiment [3] came out at 390 nmol.
With `CCCCCCCCCCCCCCCCCC(=O)OC[C@H](COP(=O)([O-])OCC[N+](C)(C)C)OC(=O)CCCCCCCNC(=O)[C@H](CCC(=O)OCCCCCCCCCCCC)NC(=O)c1ccc(N(C)Cc2cnc3nc(N)nc(N)c3n2)cc1` [DP-MTX-127, 1-Stearoyl-2-[8-(γ-dodecylate-α-MTX amido)-Octanoyl]-sn-Glycero-3-phosphocholine], the EC50 in the experiment with rat C6 glioma cell line came out at 0.795 µM.
As for `CCCCCCCCCCCCCCCCCC(=O)OC[C@H](COP(=O)([O-])OCC[N+](C)(C)C)OC(=O)CCNC(=O)[C@H](CCC(=O)OCCCCCCCCCCCC)NC(=O)c1ccc(N(C)Cc2cnc3nc(N)nc(N)c3n2)cc1` [DP-MTX-128, 1-Stearoyl-2-[3-(γ-dodecylate-α-MTX amido)Propanoyl]-sn-Glycero-3-phosphocholine], the EC50 in experiment [1] was 0.771 µM; in experiment [2], 1.6 µM.
As to `CCCCCCCCCCCCCCCCCC(=O)OC[C@H](COP(=O)([O-])OCC[N+](C)(C)C)OC(=O)CCCNC(=O)C(CCC(=O)O)NC(=O)c1ccc(N(C)Cc2cnc3nc(N)nc(N)c3n2)cc1` (stereo partly drawn) [DP-MTX-129, 1-Stearoyl-2-[4-(α-MTX amido)-Butanoyl]-sn-Glycero-3-phosphocholine], the EC50 in experiment [1] amounted to 0.821 µM; in the experiment on rat C6 glioma cell line, 3.11 µM; in experiment [2], 5.98 µM. Moreover, in experiment [3], the “ED50” value was 97.5 nmol.
The like results for `CCCCCCCCCCCCCCCCCC(=O)OC[C@H](COP(=O)([O-])OCC[N+](C)(C)C)OC(=O)CCCCCCCNC(=O)C(CCC(=O)O)NC(=O)c1ccc(N(C)Cc2cnc3nc(N)nc(N)c3n2)cc1` (stereo partly drawn) [DP-MTX-142, 1-Stearoyl-2-[8-(α-MTX amido)-Octanoyl]-sn-Glycero-3-phosphocholine] were, in that order, 6.34 µM, 36 µM, 11.6 µM and 3000 nmol.
In general, IC50 refers to the concentration that gives 50% inhibition. For `CC(Cc1ccc(O)c(O)c1)C(C)Cc1ccc(O)c(O)c1` (stereo not drawn) [NDGA], in the experiment on PLA2, the IC50 was 40 µM.
In the case of `CCN(CC)CCCC(C)Nc1c2ccc(Cl)cc2nc2ccc(OC)cc12` (stereo not drawn) [Quinacrine], the IC50 with PLA2 is 390 µM.
Consider `CC(=O)O[C@H]1C(=O)[C@@]2(C)[C@H]([C@H](OC(=O)c3ccccc3)[C@]3(O)C[C@H](OC(=O)[C@H](O)[C@@H](NC(=O)c4ccccc4)c4ccccc4)C(C)=C1C3(C)C)[C@]1(OC(C)=O)CO[C@@H]1C[C@@H]2O` [TAX, Taxol], for which the EC50 (in experiment [4]; with L1210) was 0.008 µM throughout.
With `CCCCCCCCCCCCOC(=O)[C@H](CCC(=O)O)NC(=O)c1ccc(N(C)Cc2cnc3nc(N)nc(N)c3n2)cc1` [α-C12H25-MTX, α:-dodecylate-MTX], the EC50 in experiment [1] was 0.088 µM; in experiment [2] it was 9.42 µM. Moreover, the “inhibiting the growth of the MTX-resistant cell line, CEM-MTX (in words)” value (“inhibiting the growth” below) in experiment [2] is listed as “not effective”.
For the compound `CCCCCCCCCCCCOC(=O)CC[C@H](NC(=O)c1ccc(N(C)Cc2cnc3nc(N)nc(N)c3n2)cc1)C(=O)OCCCCCCCCCCCC` [α-C12H25-MTX-γ-C12H25, α-dodecylate-MTX-γ-dodecylate], the EC50 in experiment [1] is 4.86 µM; in the experiment with rat C6 glioma cell line, 0.807 µM; in experiment [2], 5.09 µM. Moreover, in experiment [2], the “inhibiting the growth” value is reported as “not effective”.
Turning to `CCCCCCCCCCCCOC(=O)CC[C@H](NC(=O)c1ccc(N(C)Cc2cnc3nc(N)nc(N)c3n2)cc1)C(=O)O` [γ-C12H25-MTX, γ-dodecylate-MTX], in experiment [1], the EC50 amounted to 0.013 µM. In experiment [2], the “inhibiting the growth” value was “not effective” and the EC50 stood at 4.86 µM.
